# Test results as given in PubChem BioAssay (NCI).
#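 All cell lines were grown in 96-well plates and treated with compound for 48 hours. TGI: concentration producing complete growth inhibition.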
# Tests used:
# Test in all cases: growth of human tumour cells (NCI), 48 h
# SK-MEL-28 melanoma = tested on: SK-MEL-28 melanoma
# M14 melanoma = tested on: M14 melanoma
# CAKI-1 renal = tested on: CAKI-1 renal
# MOLT-4 leukemia = tested on: MOLT-4 leukemia
# LOX IMVI melanoma = tested on: LOX IMVI melanoma
# NCI-H460 lung = tested on: NCI-H460 lung
# SK-MEL-2 melanoma = tested on: SK-MEL-2 melanoma
# RXF 393 renal = tested on: RXF 393 renal
# SF-268 CNS = tested on: SF-268 CNS
# A549 NSCLC = tested on: A549 NSCLC
# OVCAR-8 ovarian = tested on: OVCAR-8 ovarian
# MDA-N = tested on: MDA-N
# SK-MEL-5 melanoma = tested on: SK-MEL-5 melanoma
# OVCAR-4 ovarian = tested on: OVCAR-4 ovarian
# HCC-2998 colon = tested on: HCC-2998 colon
# CCRF-CEM leukemia = tested on: CCRF-CEM leukemia
# K-562 leukemia = tested on: K-562 leukemia
# NCI-H226 lung = tested on: NCI-H226 lung
# NCI-H522 lung = tested on: NCI-H522 lung
# EKVX NSCLC = tested on: EKVX NSCLC
# MALME-3M melanoma = tested on: MALME-3M melanoma
# HL-60(TB) leukemia = tested on: HL-60(TB) leukemia
# 786-0 renal = tested on: 786-0 renal
# SW-620 colon = tested on: SW-620 colon
# ACHN renal = tested on: ACHN renal
# HT29 colon = tested on: HT29 colon
# MDA-MB-231 breast = tested on: MDA-MB-231 breast
# A498 renal = tested on: A498 renal
# HCT-15 colon = tested on: HCT-15 colon
# IGROV1 ovarian = tested on: IGROV1 ovarian
# HCT-116 colon = tested on: HCT-116 colon
# HOP-62 NSCLC = tested on: HOP-62 NSCLC
# OVCAR-5 ovarian = tested on: OVCAR-5 ovarian
# MDA-MB-435 = tested on: MDA-MB-435
# SNB-75 CNS = tested on: SNB-75 CNS
# SF-295 CNS = tested on: SF-295 CNS
# NCI-H23 lung = tested on: NCI-H23 lung
# MCF7 breast = tested on: MCF7 breast
# HS 578T breast = tested on: HS 578T breast
# OVCAR-3 ovarian = tested on: OVCAR-3 ovarian
# DU-145 prostate = tested on: DU-145 prostate
# TK-10 renal = tested on: TK-10 renal
# UACC-257 melanoma = tested on: UACC-257 melanoma
# NCI/ADR-RES ovarian = tested on: NCI/ADR-RES ovarian
# RPMI-8226 leukemia = tested on: RPMI-8226 leukemia
# KM12 colon = tested on: KM12 colon
# PC-3 prostate = tested on: PC-3 prostate
# SN12C renal = tested on: SN12C renal
# SNB-19 CNS = tested on: SNB-19 CNS
# T-47D breast = tested on: T-47D breast
# BT-549 breast = tested on: BT-549 breast
# U251 CNS = tested on: U251 CNS
# COLO 205 colon = tested on: COLO 205 colon
# SK-OV-3 ovarian = tested on: SK-OV-3 ovarian
# UACC-62 melanoma = tested on: UACC-62 melanoma
# SF-539 CNS = tested on: SF-539 CNS
# HOP-92 NSCLC = tested on: HOP-92 NSCLC
# UO-31 renal = tested on: UO-31 renal
compound,measurement,setting,value
Cc1cc(S(=O)(=O)Nc2nncn2-c2ccc(Cl)cc2)c(S)cc1Cl,TGI,SK-MEL-28 melanoma,> 10 µM
same,TGI,M14 melanoma,> 10 µM
same,TGI,CAKI-1 renal,> 10 µM
same,TGI,MOLT-4 leukemia,> 10 µM
same,TGI,LOX IMVI melanoma,> 10 µM
same,TGI,NCI-H460 lung,> 10 µM
same,TGI,SK-MEL-2 melanoma,> 10 µM
same,TGI,RXF 393 renal,> 10 µM
same,TGI,SF-268 CNS,> 10 µM
same,TGI,A549 NSCLC,> 10 µM
same,TGI,OVCAR-8 ovarian,> 10 µM
same,TGI,MDA-N,> 10 µM
same,TGI,SK-MEL-5 melanoma,> 10 µM
same,TGI,OVCAR-4 ovarian,> 10 µM
same,TGI,HCC-2998 colon,> 10 µM
same,TGI,CCRF-CEM leukemia,> 10 µM
same,TGI,K-562 leukemia,> 10 µM
same,TGI,NCI-H226 lung,> 10 µM
same,TGI,NCI-H522 lung,> 10 µM
same,TGI,EKVX NSCLC,> 10 µM
same,TGI,MALME-3M melanoma,> 10 µM
same,TGI,HL-60(TB) leukemia,> 10 µM
same,TGI,786-0 renal,> 10 µM
same,TGI,SW-620 colon,> 10 µM
same,TGI,ACHN renal,> 10 µM
same,TGI,HT29 colon,> 10 µM
same,TGI,MDA-MB-231 breast,> 10 µM
same,TGI,A498 renal,> 10 µM
same,TGI,HCT-15 colon,> 10 µM
same,TGI,IGROV1 ovarian,> 10 µM
same,TGI,HCT-116 colon,> 10 µM
same,TGI,HOP-62 NSCLC,> 10 µM
same,TGI,OVCAR-5 ovarian,> 10 µM
same,TGI,MDA-MB-435,> 10 µM
same,TGI,SNB-75 CNS,> 10 µM
same,TGI,SF-295 CNS,> 10 µM
same,TGI,NCI-H23 lung,> 10 µM
same,TGI,MCF7 breast,> 10 µM
same,TGI,HS 578T breast,> 10 µM
same,TGI,OVCAR-3 ovarian,> 10 µM
same,TGI,DU-145 prostate,> 10 µM
same,TGI,TK-10 renal,> 10 µM
same,TGI,UACC-257 melanoma,> 10 µM
same,TGI,NCI/ADR-RES ovarian,> 10 µM
same,TGI,RPMI-8226 leukemia,> 10 µM
same,TGI,KM12 colon,> 10 µM
same,TGI,PC-3 prostate,> 10 µM
same,TGI,SN12C renal,> 10 µM
same,TGI,SNB-19 CNS,> 10 µM
same,TGI,T-47D breast,> 10 µM
same,TGI,BT-549 breast,> 10 µM
same,TGI,U251 CNS,> 10 µM
same,TGI,COLO 205 colon,> 10 µM
same,TGI,SK-OV-3 ovarian,> 10 µM
same,TGI,UACC-62 melanoma,> 10 µM
same,TGI,SF-539 CNS,> 10 µM
COC(=O)c1c(C)cccc1C1CN=NC12Cc1cc(C)cc(C)c1C2=O (stereo not drawn),TGI,SK-MEL-28 melanoma,> 100 µM
same,TGI,M14 melanoma,> 100 µM
same,TGI,CAKI-1 renal,> 100 µM
same,TGI,MOLT-4 leukemia,> 100 µM
same,TGI,LOX IMVI melanoma,41.5 µM
same,TGI,NCI-H460 lung,> 100 µM
same,TGI,SK-MEL-2 melanoma,> 100 µM
same,TGI,RXF 393 renal,> 100 µM
same,TGI,SF-268 CNS,> 100 µM
same,TGI,A549 NSCLC,> 100 µM
same,TGI,OVCAR-8 ovarian,> 100 µM
same,TGI,MDA-N,> 100 µM
same,TGI,SK-MEL-5 melanoma,44.6 µM
same,TGI,OVCAR-4 ovarian,> 100 µM
same,TGI,HCC-2998 colon,68 µM
same,TGI,CCRF-CEM leukemia,63.8 µM
same,TGI,K-562 leukemia,> 100 µM
same,TGI,NCI-H226 lung,> 100 µM
same,TGI,NCI-H522 lung,41.2 µM
same,TGI,EKVX NSCLC,> 100 µM
same,TGI,MALME-3M melanoma,> 100 µM
same,TGI,HL-60(TB) leukemia,44.2 µM
same,TGI,786-0 renal,> 100 µM
same,TGI,HOP-92 NSCLC,64.2 µM
same,TGI,SW-620 colon,> 100 µM
same,TGI,ACHN renal,> 100 µM
same,TGI,HT29 colon,> 100 µM
same,TGI,MDA-MB-231 breast,98.2 µM
same,TGI,A498 renal,74.9 µM
same,TGI,HCT-15 colon,> 100 µM
same,TGI,IGROV1 ovarian,> 100 µM
same,TGI,HCT-116 colon,> 100 µM
same,TGI,HOP-62 NSCLC,> 100 µM
same,TGI,OVCAR-5 ovarian,> 100 µM
same,TGI,MDA-MB-435,> 100 µM
same,TGI,SNB-75 CNS,99.3 µM
same,TGI,SF-295 CNS,> 100 µM
same,TGI,NCI-H23 lung,78.4 µM
same,TGI,MCF7 breast,29.1 µM
same,TGI,HS 578T breast,> 100 µM
same,TGI,OVCAR-3 ovarian,> 100 µM
same,TGI,DU-145 prostate,> 100 µM
same,TGI,TK-10 renal,98.3 µM
same,TGI,UACC-257 melanoma,80.3 µM
same,TGI,NCI/ADR-RES ovarian,> 100 µM
same,TGI,KM12 colon,> 100 µM
same,TGI,PC-3 prostate,> 100 µM
same,TGI,UO-31 renal,> 100 µM
same,TGI,SN12C renal,> 100 µM
same,TGI,SNB-19 CNS,> 100 µM
same,TGI,T-47D breast,> 100 µM
same,TGI,BT-549 breast,> 100 µM
same,TGI,U251 CNS,> 100 µM
same,TGI,COLO 205 colon,31.9 µM
same,TGI,SK-OV-3 ovarian,> 100 µM
same,TGI,UACC-62 melanoma,> 100 µM
same,TGI,SF-539 CNS,> 100 µM
CC(=O)O[C@H]1C[C@@H](OC(C)=O)[C@@](C)(O)[C@@H]2[C@@H](OC(C)=O)[C@@]3(O)[C@H](/C=C(/CO)[C@H]4O[C@H]4[C@@H](OC(C)=O)[C@@]12C)OC(=O)[C@@H]3C,TGI,SK-MEL-28 melanoma,> 25 µM
same,TGI,M14 melanoma,> 25 µM
same,TGI,CAKI-1 renal,> 25 µM
same,TGI,MOLT-4 leukemia,> 25 µM
same,TGI,LOX IMVI melanoma,> 25 µM
same,TGI,NCI-H460 lung,> 25 µM
same,TGI,SK-MEL-2 melanoma,> 25 µM
same,TGI,RXF 393 renal,10.7 µM
same,TGI,SF-268 CNS,> 25 µM
same,TGI,A549 NSCLC,> 25 µM
same,TGI,OVCAR-8 ovarian,> 25 µM
same,TGI,MDA-N,7.63 µM
same,TGI,SK-MEL-5 melanoma,> 25 µM
same,TGI,OVCAR-4 ovarian,> 25 µM
same,TGI,HCC-2998 colon,> 25 µM
same,TGI,CCRF-CEM leukemia,> 25 µM
same,TGI,K-562 leukemia,> 25 µM
same,TGI,NCI-H226 lung,> 25 µM
same,TGI,NCI-H522 lung,15.6 µM
same,TGI,EKVX NSCLC,> 25 µM
same,TGI,MALME-3M melanoma,> 25 µM
same,TGI,786-0 renal,> 25 µM
same,TGI,HOP-92 NSCLC,> 25 µM
same,TGI,SW-620 colon,> 25 µM
same,TGI,ACHN renal,> 25 µM
same,TGI,HT29 colon,> 25 µM
same,TGI,MDA-MB-231 breast,> 25 µM
same,TGI,A498 renal,> 25 µM
same,TGI,HCT-15 colon,> 25 µM
same,TGI,IGROV1 ovarian,> 25 µM
same,TGI,HCT-116 colon,> 25 µM
same,TGI,HOP-62 NSCLC,> 25 µM
same,TGI,OVCAR-5 ovarian,> 25 µM
same,TGI,MDA-MB-435,> 25 µM
same,TGI,SNB-75 CNS,17.5 µM
same,TGI,SF-295 CNS,16.8 µM
same,TGI,NCI-H23 lung,> 25 µM
same,TGI,HS 578T breast,> 25 µM
same,TGI,OVCAR-3 ovarian,15.5 µM
same,TGI,DU-145 prostate,12 µM
same,TGI,TK-10 renal,> 25 µM
same,TGI,UACC-257 melanoma,> 25 µM
same,TGI,NCI/ADR-RES ovarian,> 25 µM
same,TGI,RPMI-8226 leukemia,> 25 µM
same,TGI,KM12 colon,> 25 µM
same,TGI,PC-3 prostate,> 25 µM
same,TGI,UO-31 renal,> 25 µM
same,TGI,SN12C renal,> 25 µM
same,TGI,SNB-19 CNS,> 25 µM
same,TGI,T-47D breast,> 25 µM
same,TGI,BT-549 breast,> 25 µM
same,TGI,U251 CNS,21.4 µM
same,TGI,COLO 205 colon,> 25 µM
same,TGI,SK-OV-3 ovarian,> 25 µM
same,TGI,UACC-62 melanoma,> 25 µM
